Measured values as given in patent publication US5397705A, “Multiply mutated subtilisins” (Amgen Inc., priority 1992, dated 1995).
Numbering of substitutions follows the chain as printed. Where a SMILES comes first, the peptide text is derived from it.

Tests used:
Test in all cases: Kinetics of hydrolysis of succinyl Ala-Ala-Pro-Phe-para-nitroanilide by the subtilisin analog
[1] = molecular target: T1, Bacillus subtilis aprA subtilisin analog [Asp^76, Ser^109, Ser^218] (Asn76Asp, Asn109Ser, Asn218Ser) (Bacillus subtilis, UniProt P04189, N182D/N215S/N324S); format: biochemical; conditions: substrate succinyl Ala-Ala-Pro-Phe-para-nitroanilide
T1 construct: made in house; host or cells: Bacillus subtilis (plasmid pAMB131)
T1 sequence (P04189 107-381 N182D/N215S/N324S): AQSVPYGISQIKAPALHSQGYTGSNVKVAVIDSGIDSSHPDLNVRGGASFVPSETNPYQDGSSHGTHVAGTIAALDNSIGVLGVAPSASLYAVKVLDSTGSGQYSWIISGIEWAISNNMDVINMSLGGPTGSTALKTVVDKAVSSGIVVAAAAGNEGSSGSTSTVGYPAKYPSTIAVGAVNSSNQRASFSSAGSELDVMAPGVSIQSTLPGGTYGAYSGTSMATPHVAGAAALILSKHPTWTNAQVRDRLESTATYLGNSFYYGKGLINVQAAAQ
Source text: (§1) As mentioned earlier, analog [Asp^76, Ser^109, Ser^218, Ala^222 ] has a lower specific activity toward azocasein than analog [Asp^76, Ser^109, Ser^218 ], with an approximate Vm of 0.02 dA/(min-mg/ml) versus 0.08 dA/(min-mg/ml) for [Asp^76, Ser^109, Ser^218 ]. To see if this decreased activity was specific for azocasein, or a general characteristic of the [Asp^76, Ser^109, Ser^218, Ala^222 ] analog, the kinetics of the hydrolysis of the artificial peptide succinyl Ala-Ala-Pro-Phe-para-nitroanilide was analyzed for [Asp^76, Ser^109, Ser^218, Ala^222 ] and [Asp^76, Set^109, Ser^218 ]. […] This specific activity is 4-fold less than that of aprA-subtilisin. The catalytic Ser is at position 221, and it appears that substitutions at position 222 interfere with substrate binding as well as with the rate limiting step of proteolysis.

[2] = molecular target: T2, Bacillus subtilis aprA subtilisin analog [Asp^76, Ser^109, Ser^218, Ala^222] (Asn76Asp, Asn109Ser, Asn218Ser, Met222Ala) (Bacillus subtilis, UniProt P04189, M328A/N182D/N215S/N324S); format: biochemical; conditions: substrate succinyl Ala-Ala-Pro-Phe-para-nitroanilide
T2 construct: made in house; host or cells: Bacillus host cells (plasmid pAMB143)
T2 sequence (P04189 107-381 N182D/N215S/N324S/M328A): T1 sequence (P04189 107-381 N182D/N215S/N324S) with M222A
Source text: as §1

[3] = substrate: C[C@H](NC(=O)CCC(=O)O)C(=O)N[C@@H](C)C(=O)N1CCC[C@H]1C(=O)N[C@@H](Cc1ccccc1)C(=O)Nc1ccc([N+](=O)[O-])cc1; format: biochemical, Bacillus subtilis; conditions: other: substrate succinyl Ala-Ala-Pro-Phe-para-nitroanilide
Source text: as §1

C[C@H](NC(=O)CCC(=O)O)C(=O)N[C@@H](C)C(=O)N1CCC[C@H]1C(=O)N[C@@H](Cc1ccccc1)C(=O)Nc1ccc([N+](=O)[O-])cc1 [succinyl-L-alanyl-L-alanyl-L-prolyl-L-phenylalanyl-p-nitroanilide] (HELM PEPTIDE1{[O=C(O)CCC(=O)[*:2]].A.A.P.F.[O=[N+]([O-])c1ccc(N[*:1])cc1]}$$$$V2.0)
Vmax [1]: 7.9 dA/(min-nmole) | Vmax [2]: 1.1 dA/(min-nmole)

B1: Bacillus subtilis aprA subtilisin analog [Asp^76, Ser^109, Ser^218] (Asn76Asp, Asn109Ser, Asn218Ser) (Bacillus subtilis subsp. subtilis str. 168; … (protein)
chain: T1 sequence (P04189 107-381 N182D/N215S/N324S)
notes: made in house; host or cells: Bacillus subtilis (plasmid pAMB131)
Km ([3]; analog [Asp^76, Ser^109, Ser^218]): 440 µM

B2: Bacillus subtilis aprA subtilisin analog [Asp^76, Ser^109, Ser^218, Ala^222] (Asn76Asp, Asn109Ser, Asn218Ser, Met222Ala) (Bacillus subtilis subsp. subtilis … (protein)
chain: T1 sequence (P04189 107-381 N182D/N215S/N324S) with M222A
notes: made in house; host or cells: Bacillus host cells (plasmid pAMB143)
Km ([3]; analog [Asp^76, Ser^109, Ser^218, Ala^222]): 1400 µM
